# Reference: PMC11581222, “Inhibition of CCl4-induced liver inflammation and fibrosis by a NEU3 inhibitor” (PLOS ONE, 2024)
# Where two headings read alike, the source gives them in different places.
# Experiments:
# human recombinant NEU3 = tested on: human recombinant NEU3; parameters: method as in PMID 33144389; settings: cited from earlier work
# [1] = tested on: bleomycin-induced pulmonary fibrosis; settings: cited from earlier work; for pulmonary fibrosis: injections, male mice
# [2] = tested on: high fat diet (HFD)-induced liver inflammation, weight gain and steatosis; parameters: method as in PMID 33039353; settings: injections, cited from earlier work
# [3] = tested on: MCD diet-induced liver fibrosis; parameters: method as in PMID 33378413; settings: cited from earlier work
# Aromatase / CYP19A1 = Aromatase / CYP19A1 (Homo sapiens, UniProt P11511); assay: Eurofins CYP450 inhibition, dibenzyl fluorescein substrate; assay type: biochemical; settings: 10 μM 2AP
# CYP1A2 = CYP1A2 (Homo sapiens, UniProt P05177); assay: Eurofins CYP450 inhibition, 3-Cyano-7-ethoxycoumarin substrate; assay type: in vitro ADME; settings: recombinant CYP1A2, probe 3-cyano-7-ethoxycoumarin, 10 μM 2AP
# Description: (§1) CYP450 enzymes and a panel of receptors were assessed for inhibition by 10 μM 2AP using HitProfilingScreen + CYP450 LeadHunter Panel at Eurofins (Eurofins Panlabs Discovery Services, New Taipei City, Taiwan). Briefly, human recombinant CYP450 enzymes were preincubated at 37°C for 15 minutes with 10 μM 2AP. Enzyme activity was assessed by cleavage of the CYP450 fluorogenic substrates dibenzyl fluorescein (aromatase / CYP19A1, CYP2C8), 3-Cyano-7-ethoxycoumarin (CYP1A2, CYP2B6, CYP2C19, CYP2C9, and CYP2D6), or 7-Benzyloxy-4-(trifluoromethyl)-coumarin (CYP3A4), as described previously. Inhibition of receptor binding was assessed using a panel of receptors expressed on cell lines or using tissue extracts and preincubated at 25°C for 30–120 minutes with 10 μM 2AP. Cells or tissue extracts were then incubated with radiolabeled specific ligands a described (https://www.eurofinsdiscovery.com/catalog/hitprofilingscreen-cyp450-leadhunter-panel-tw/PP115) and inhibition of binding was reported (S2 Table).
# CYP2B6 = CYP2B6 (Homo sapiens, UniProt P20813); assay: as above; assay type: in vitro ADME; settings: recombinant CYP2B6, probe 3-cyano-7-ethoxycoumarin, 10 μM 2AP
# CYP2C19 = CYP2C19 (Homo sapiens, UniProt P33261); assay: as above; assay type: in vitro ADME; settings: recombinant CYP2C19, probe 3-cyano-7-ethoxycoumarin, 10 μM 2AP
# CYP2C8 = CYP2C8 (Homo sapiens, UniProt P10632); assay: Eurofins CYP450 inhibition, dibenzyl fluorescein substrate; assay type: in vitro ADME; settings: recombinant CYP2C8, probe dibenzyl fluorescein, 10 μM 2AP
# CYP2C9 = CYP2C9 (Homo sapiens, UniProt P11712); assay: Eurofins CYP450 inhibition, 3-Cyano-7-ethoxycoumarin substrate; assay type: in vitro ADME; settings: recombinant CYP2C9, probe 3-cyano-7-ethoxycoumarin, 10 μM 2AP
# CYP2C9, sequence (P11712 whole entry): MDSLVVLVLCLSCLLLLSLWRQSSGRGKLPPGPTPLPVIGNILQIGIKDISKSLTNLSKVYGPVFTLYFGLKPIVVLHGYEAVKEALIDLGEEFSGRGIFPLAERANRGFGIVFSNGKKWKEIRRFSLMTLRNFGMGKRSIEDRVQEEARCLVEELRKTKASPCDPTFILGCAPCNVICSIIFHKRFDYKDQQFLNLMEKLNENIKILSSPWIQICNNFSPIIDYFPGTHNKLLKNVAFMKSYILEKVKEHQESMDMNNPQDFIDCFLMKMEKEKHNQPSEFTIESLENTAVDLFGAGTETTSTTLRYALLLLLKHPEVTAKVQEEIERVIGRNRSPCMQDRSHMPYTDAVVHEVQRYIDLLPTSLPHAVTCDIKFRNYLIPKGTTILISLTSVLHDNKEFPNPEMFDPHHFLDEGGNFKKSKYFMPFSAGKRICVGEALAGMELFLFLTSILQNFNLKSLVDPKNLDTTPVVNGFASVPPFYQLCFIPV
# CYP2D6 = CYP2D6 (Homo sapiens, UniProt P10635); assay: as above; assay type: in vitro ADME; settings: recombinant CYP2D6, probe 3-cyano-7-ethoxycoumarin, 10 μM 2AP
# CYP2D6, sequence (P10635 whole entry): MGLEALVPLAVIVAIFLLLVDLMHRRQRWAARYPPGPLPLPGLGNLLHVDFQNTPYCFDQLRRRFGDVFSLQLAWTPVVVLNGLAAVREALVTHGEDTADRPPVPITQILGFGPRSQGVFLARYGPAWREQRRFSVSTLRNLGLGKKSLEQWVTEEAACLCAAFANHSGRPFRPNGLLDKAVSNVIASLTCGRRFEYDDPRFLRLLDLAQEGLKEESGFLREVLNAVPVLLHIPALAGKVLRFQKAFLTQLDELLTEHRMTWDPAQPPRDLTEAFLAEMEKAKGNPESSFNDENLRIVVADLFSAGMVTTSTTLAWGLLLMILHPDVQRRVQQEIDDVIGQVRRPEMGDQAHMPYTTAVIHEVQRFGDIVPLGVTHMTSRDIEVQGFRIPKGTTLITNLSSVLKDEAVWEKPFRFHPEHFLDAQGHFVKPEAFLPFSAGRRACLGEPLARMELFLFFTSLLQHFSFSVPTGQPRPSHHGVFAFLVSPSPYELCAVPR
# CYP3A4 = CYP3A4 (Homo sapiens, UniProt P08684); assay: Eurofins CYP450 inhibition, 7-Benzyloxy-4-(trifluoromethyl)-coumarin substrate; assay type: in vitro ADME; settings: recombinant CYP3A4, probe 7-benzyloxy-4-(trifluoromethyl)-coumarin, 10 μM 2AP
# Adenosine A1 = Adenosine A1 (Homo sapiens, UniProt P30542); assay: Eurofins radioligand receptor binding inhibition; parameters: dose or concentration left out as unconfirmed
# Adenosine A2A = Adenosine A2A (Homo sapiens, UniProt P29274); assay: Eurofins radioligand receptor binding inhibition; settings: 10 μM 2AP
# Adrenergic α1A = Adrenergic α1A (Rattus norvegicus, UniProt P43140); assay: Eurofins radioligand receptor binding inhibition; settings: 10 μM 2AP
# Adrenergic α1B = Adrenergic α1B (Rattus norvegicus, UniProt P15823); assay: Eurofins radioligand receptor binding inhibition; settings: 10 μM 2AP
# Adrenergic α1B, sequence (P15823 whole entry): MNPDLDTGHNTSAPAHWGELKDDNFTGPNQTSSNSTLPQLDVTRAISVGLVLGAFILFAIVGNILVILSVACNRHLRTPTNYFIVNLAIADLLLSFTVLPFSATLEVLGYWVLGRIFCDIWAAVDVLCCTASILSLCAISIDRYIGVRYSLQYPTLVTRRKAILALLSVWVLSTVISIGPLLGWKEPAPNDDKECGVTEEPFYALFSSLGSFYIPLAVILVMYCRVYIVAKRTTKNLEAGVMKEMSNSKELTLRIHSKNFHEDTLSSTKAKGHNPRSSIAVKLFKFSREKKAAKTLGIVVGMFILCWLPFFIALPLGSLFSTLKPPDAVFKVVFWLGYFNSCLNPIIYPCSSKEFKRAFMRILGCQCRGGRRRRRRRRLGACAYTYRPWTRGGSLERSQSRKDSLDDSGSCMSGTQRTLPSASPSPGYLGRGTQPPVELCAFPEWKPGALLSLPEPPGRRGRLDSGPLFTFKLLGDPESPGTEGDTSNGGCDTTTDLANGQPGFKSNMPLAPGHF
# Adrenergic α2A = Adrenergic α2A (Homo sapiens, UniProt P08913); assay: Eurofins radioligand receptor binding inhibition; settings: 10 μM 2AP
# Adrenergic α2A, sequence (P08913 whole entry): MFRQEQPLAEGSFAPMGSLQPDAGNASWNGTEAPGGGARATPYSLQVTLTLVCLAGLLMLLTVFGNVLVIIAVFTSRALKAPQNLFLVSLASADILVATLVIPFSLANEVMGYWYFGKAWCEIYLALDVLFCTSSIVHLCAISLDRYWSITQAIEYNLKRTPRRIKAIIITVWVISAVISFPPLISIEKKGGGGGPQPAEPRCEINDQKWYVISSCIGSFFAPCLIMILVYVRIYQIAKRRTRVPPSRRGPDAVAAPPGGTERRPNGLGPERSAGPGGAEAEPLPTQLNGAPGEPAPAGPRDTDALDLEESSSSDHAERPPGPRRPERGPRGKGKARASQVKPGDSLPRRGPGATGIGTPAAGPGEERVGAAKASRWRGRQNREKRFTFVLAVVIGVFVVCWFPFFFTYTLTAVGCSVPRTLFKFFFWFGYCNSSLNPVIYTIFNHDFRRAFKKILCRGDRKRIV
# Adrenergic β1 = Adrenergic β1 (Homo sapiens, UniProt P08588); assay: Eurofins radioligand receptor binding inhibition; settings: 10 μM 2AP
# Adrenergic β2 = Adrenergic β2 (Homo sapiens, UniProt P07550); assay: Eurofins radioligand receptor binding inhibition; parameters: dose or concentration left out as unconfirmed
# [4] = tested on: Calcium Channel L-Type, Dihydropyridine; assay: Eurofins radioligand receptor binding inhibition; settings: 10 μM 2AP
# Cannabinoid CB1 = Cannabinoid CB1 (Homo sapiens, UniProt P21554); assay: Eurofins radioligand receptor binding inhibition; parameters: dose or concentration left out as unconfirmed
# Dopamine D1 = Dopamine D1 (Homo sapiens, UniProt P21728); assay: Eurofins radioligand receptor binding inhibition; parameters: dose or concentration left out as unconfirmed
# Dopamine D1, sequence (P21728 whole entry): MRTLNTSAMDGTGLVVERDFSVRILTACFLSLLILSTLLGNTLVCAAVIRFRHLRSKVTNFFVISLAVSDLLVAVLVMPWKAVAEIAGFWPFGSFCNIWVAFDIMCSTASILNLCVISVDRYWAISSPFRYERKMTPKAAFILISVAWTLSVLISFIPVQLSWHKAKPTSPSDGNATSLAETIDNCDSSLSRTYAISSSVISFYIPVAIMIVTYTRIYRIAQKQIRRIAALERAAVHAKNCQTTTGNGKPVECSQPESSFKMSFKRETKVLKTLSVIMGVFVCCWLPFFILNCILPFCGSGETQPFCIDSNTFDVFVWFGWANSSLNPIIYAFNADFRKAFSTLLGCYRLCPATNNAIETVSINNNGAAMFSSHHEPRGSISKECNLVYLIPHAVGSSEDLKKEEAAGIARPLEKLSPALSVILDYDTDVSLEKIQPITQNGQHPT
# Dopamine D2S = Dopamine D2S (Homo sapiens, UniProt P14416); assay: Eurofins radioligand receptor binding inhibition; parameters: dose or concentration left out as unconfirmed
# GABAA Flunitrazepam = assay: Eurofins radioligand receptor binding inhibition; settings: 10 μM 2AP
# GABAA Muscimol = assay: Eurofins radioligand receptor binding inhibition; settings: 10 μM 2AP
# Glutamate = assay: Eurofins radioligand receptor binding inhibition; settings: 10 μM 2AP
# Histamine H1 = Histamine H1 (Homo sapiens, UniProt P35367); assay: Eurofins radioligand receptor binding inhibition; settings: 10 μM 2AP
# Imidazoline I2, Central = assay: Eurofins radioligand receptor binding inhibition; settings: 10 μM 2AP
# Muscarinic M2 = Muscarinic M2 (Homo sapiens, UniProt P08172); assay: Eurofins radioligand receptor binding inhibition; parameters: dose or concentration left out as unconfirmed
# Muscarinic M3 = Muscarinic M3 (Homo sapiens, UniProt P20309); assay: Eurofins radioligand receptor binding inhibition; settings: 10 μM 2AP
# [5] = molecular target: Nicotinic Acetylcholine α1, Bungarotoxin (Homo sapiens, UniProt P02708+P07510+Q07001); assay: biochemical; assay type: binding; parameters: dose or concentration left out as unconfirmed
# [6] = molecular target: Nicotinic Acetylcholine α3β4 (Homo sapiens, UniProt P30926+P32297); assay: Eurofins radioligand receptor binding inhibition; settings: 10 μM 2AP
# Opiate μ (OP3, MOP) = Opiate μ (OP3, MOP) (Homo sapiens, UniProt P35372); assay: Eurofins radioligand receptor binding inhibition; parameters: dose or concentration left out as unconfirmed
# Opiate μ (OP3, MOP), sequence (P35372 whole entry): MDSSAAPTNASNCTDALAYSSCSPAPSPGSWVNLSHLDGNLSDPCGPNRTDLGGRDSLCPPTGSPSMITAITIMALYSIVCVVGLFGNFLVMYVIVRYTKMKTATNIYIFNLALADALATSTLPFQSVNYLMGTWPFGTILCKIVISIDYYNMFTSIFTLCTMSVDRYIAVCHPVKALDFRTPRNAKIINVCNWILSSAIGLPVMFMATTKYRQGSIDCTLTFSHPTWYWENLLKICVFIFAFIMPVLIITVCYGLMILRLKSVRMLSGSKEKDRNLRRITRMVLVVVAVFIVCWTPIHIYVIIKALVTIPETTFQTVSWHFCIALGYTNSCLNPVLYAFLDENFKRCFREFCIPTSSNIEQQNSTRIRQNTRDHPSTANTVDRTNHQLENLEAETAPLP
# Potassium Channel [KATP] = assay: Eurofins radioligand receptor binding inhibition; settings: 10 μM 2AP
# hERG potassium channel = hERG potassium channel (Homo sapiens, UniProt Q12809); assay: Eurofins radioligand receptor binding inhibition; settings: 10 μM 2AP
# hERG potassium channel, sequence (Q12809 whole entry): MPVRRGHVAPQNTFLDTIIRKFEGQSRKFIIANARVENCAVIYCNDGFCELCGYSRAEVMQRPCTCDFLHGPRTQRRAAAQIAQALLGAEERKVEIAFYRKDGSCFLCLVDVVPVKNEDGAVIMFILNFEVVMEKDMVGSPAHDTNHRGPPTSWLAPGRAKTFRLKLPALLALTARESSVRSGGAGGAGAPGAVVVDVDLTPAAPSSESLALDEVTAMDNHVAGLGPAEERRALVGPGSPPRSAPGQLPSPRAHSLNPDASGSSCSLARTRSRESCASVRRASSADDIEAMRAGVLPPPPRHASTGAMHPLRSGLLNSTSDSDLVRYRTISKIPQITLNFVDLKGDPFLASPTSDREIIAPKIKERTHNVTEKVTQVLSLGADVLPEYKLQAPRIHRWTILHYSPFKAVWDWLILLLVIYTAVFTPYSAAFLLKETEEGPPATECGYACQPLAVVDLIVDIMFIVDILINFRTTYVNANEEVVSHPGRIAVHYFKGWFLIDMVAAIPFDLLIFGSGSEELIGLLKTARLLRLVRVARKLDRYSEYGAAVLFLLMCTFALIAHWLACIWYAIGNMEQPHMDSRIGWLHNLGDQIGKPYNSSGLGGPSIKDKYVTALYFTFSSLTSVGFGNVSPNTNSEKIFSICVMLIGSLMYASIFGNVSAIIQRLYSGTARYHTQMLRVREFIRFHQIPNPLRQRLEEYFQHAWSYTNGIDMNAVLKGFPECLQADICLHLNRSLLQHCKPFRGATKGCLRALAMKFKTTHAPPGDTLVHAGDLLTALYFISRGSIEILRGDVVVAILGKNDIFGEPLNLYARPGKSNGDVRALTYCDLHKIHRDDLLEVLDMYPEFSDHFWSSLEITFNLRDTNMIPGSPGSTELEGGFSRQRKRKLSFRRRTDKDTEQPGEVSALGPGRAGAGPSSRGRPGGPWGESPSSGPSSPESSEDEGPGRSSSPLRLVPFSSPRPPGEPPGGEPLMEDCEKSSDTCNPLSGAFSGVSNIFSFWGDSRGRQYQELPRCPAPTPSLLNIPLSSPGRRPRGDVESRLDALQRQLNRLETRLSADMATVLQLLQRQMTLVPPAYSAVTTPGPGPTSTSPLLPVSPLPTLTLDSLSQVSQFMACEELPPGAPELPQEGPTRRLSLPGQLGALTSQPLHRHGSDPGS
# Prostanoid EP4 = Prostanoid EP4 (Homo sapiens, UniProt P35408); assay: Eurofins radioligand receptor binding inhibition; settings: 10 μM 2AP
# Norepinephrine (NET) = Norepinephrine (NET) (Homo sapiens, UniProt P23975); assay: Eurofins radioligand receptor binding inhibition; settings: 10 μM 2AP
# Description: as §1
# [7] = molecular target: Serotonin (5-Hydroxytryptamine) 5-HT2B (Homo sapiens, UniProt P41595); assay: Eurofins radioligand receptor binding inhibition; settings: 10 μM 2AP
# Serotonin (5-Hydroxytryptamine) 5-HT2B, sequence (P41595 whole entry): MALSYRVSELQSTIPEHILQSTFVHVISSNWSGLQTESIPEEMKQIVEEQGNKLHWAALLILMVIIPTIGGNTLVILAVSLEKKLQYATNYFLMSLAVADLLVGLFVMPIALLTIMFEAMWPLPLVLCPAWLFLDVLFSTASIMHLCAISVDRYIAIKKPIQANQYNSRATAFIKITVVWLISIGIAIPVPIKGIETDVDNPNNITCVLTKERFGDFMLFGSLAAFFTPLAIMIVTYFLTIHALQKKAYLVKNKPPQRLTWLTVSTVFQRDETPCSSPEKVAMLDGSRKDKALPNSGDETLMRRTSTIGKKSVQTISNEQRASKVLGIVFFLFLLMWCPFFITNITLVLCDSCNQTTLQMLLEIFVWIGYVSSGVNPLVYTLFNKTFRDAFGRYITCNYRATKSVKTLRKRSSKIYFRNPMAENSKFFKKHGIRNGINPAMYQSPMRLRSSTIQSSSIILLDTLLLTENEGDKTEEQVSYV
# Description: as §1
# Sigma σ1 = Sigma σ1 (Homo sapiens, UniProt Q99720); assay: Eurofins radioligand receptor binding inhibition; settings: 10 μM 2AP
# Sigma σ1, sequence (Q99720 whole entry): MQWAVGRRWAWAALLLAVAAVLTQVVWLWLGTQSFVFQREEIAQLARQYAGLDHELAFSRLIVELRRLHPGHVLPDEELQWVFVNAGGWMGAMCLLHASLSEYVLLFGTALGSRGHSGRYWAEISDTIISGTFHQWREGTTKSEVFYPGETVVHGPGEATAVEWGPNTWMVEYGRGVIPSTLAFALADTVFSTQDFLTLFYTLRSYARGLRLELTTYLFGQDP
# Sodium Channel, Site 2 = assay: Eurofins radioligand receptor binding inhibition; settings: 10 μM 2AP
# [8] = tested on: aromatase/CYP19A1, CYP2C8, CYP1A2, CYP2B6, CYP2C19, CYP2C9, CYP2D6 and CYP3A4 (mean over 8 enzymes); assay: Eurofins CYP450 panel, mean over 8 enzymes; assay type: in vitro ADME; settings: human, recombinant CYP450 enzymes; 10 μM 2AP; mean over 8 CYP450 enzymes; read-out: percent inhibition of CYP450 enzymes, mean ± SD, n = 8
# 28 receptors = assay: Eurofins panel of 28 receptors, inhibition of binding; settings: 10 μM 2AP
# mouse recombinant NEU3 = tested on: mouse recombinant NEU3; parameters: method as in PMID 33144389; settings: pH 6.9, read-out: IC50, inhibition of release of active TGF-β1 from human latent TGF-β1; cited from earlier work
# [9] = tested on: CCl4-induced liver inflammation and fibrosis; settings: for body weight, CCl4-induced weight loss: 1 mg/kg 2AP i.p. daily from day 21
# [10] = CCl4+2AP vs CCl4, male and female mice
# [11] = treatments vs control (oil) mice
smiles,measurement,setting,value
"CC(=O)N[C@H]1[C@H]([C@H](O)[C@H](O)CO)OC(C(=O)O)=C[C@@H]1O [DANA, N-acetyl-2,3-dehydro-2-deoxyneuraminic acid]",IC50,"human recombinant NEU3; NEU3 species not specified for DANA, read-out: inhibition of active TGF-β1 release",> 100000 nM
same,desialylation in lung fibrosis,[1],reversed desialylation in lung fibrosis
same,pulmonary fibrosis,[1],attenuate bleomycin-induced pulmonary fibrosis
same,HFD induced weight gain and steatosis,[2],inhibited HFD induced weight gain and steatosis
same,HFD-induced liver inflammation,[2]; male mice,attenuate high fat diet (HFD)-induced liver inflammation
same,MCD diet-induced liver fibrosis,[3],inhibits methionine and choline-deficient (MCD) diet-induced liver fibrosis
"CC(=O)c1ccccn1 [2AP, 2-acetyl pyridine]",inhibition at 10 µM,Aromatase / CYP19A1,1%
same,inhibition at 10 µM,CYP1A2,3%
same,inhibition at 10 µM,CYP2B6,0%
same,inhibition at 10 µM,CYP2C19,3%
same,inhibition at 10 µM,CYP2C8,0%
same,inhibition at 10 µM,CYP2C9,1%
same,inhibition at 10 µM,CYP2D6,2%
same,inhibition at 10 µM,CYP3A4,-2%
same,inhibition,Adenosine A1,10%
same,inhibition at 10 µM,Adenosine A2A,0%
same,inhibition at 10 µM,Adrenergic α1A,5%
same,inhibition at 10 µM,Adrenergic α1B,2%
same,inhibition at 10 µM,Adrenergic α2A,-5%
same,inhibition at 10 µM,Adrenergic β1,3%
same,inhibition,Adrenergic β2,5%
same,% Inhibition,[4],7%
same,inhibition,Cannabinoid CB1,-1%
same,inhibition,Dopamine D1,-5%
same,inhibition,Dopamine D2S,-4%
same,% Inhibition,GABAA Flunitrazepam,-2%
same,% Inhibition,GABAA Muscimol,4%
same,% Inhibition,Glutamate,27%
same,inhibition at 10 µM,Histamine H1,8%
same,% Inhibition,"Imidazoline I2, Central",3%
same,inhibition,Muscarinic M2,4%
same,inhibition at 10 µM,Muscarinic M3,1%
same,inhibition,[5],5%
same,inhibition at 10 µM,[6],-2%
same,inhibition,"Opiate μ (OP3, MOP)",0%
same,% Inhibition,Potassium Channel [KATP],-11%
same,inhibition at 10 µM,hERG potassium channel,4%
same,inhibition at 10 µM,Prostanoid EP4,7%
same,inhibition at 10 µM,Norepinephrine (NET),7%
same,inhibition at 10 µM,[7],12%
same,inhibition at 10 µM,Sigma σ1,13%
same,% Inhibition,"Sodium Channel, Site 2",13%
same,inhibition at 10 µM,[8],1.5 ± 1.2%
same,inhibitory effect on an additional 28 receptors,28 receptors,no inhibitory effect
same,IC50,"human recombinant NEU3; human recombinant NEU3, pH 6.9, read-out: IC50, inhibition of release of active TGF-β1 from human latent TGF-β1",40 ± 6 nM
same,IC50,mouse recombinant NEU3,800 ± 170 nM
same,toxic effects of daily injections,"[9]; 1 mg/kg 2AP i.p. daily, days 21-42",did not appear to have any obvious toxic effects
same,"body weight, CCl4-induced weight loss","[9]; CCl4+2AP vs CCl4, female mice",response of female mice to 2AP treatment
same,"body weight, CCl4-induced weight loss","[9]; CCl4+2AP vs CCl4, male and female combined, days 39 and 40",less weight loss
same,"body weight, CCl4-induced weight loss","[9]; CCl4+2AP vs CCl4, male mice",not apparent in male mice
same,number of S100A8/MRP8 positive cells (neutrophils) in liver,"[9]; CCl4+2AP vs CCl4, female mice",reduction in the number of S100A8/MRP8 positive cells
same,liver NEU3 staining,[9]; [10],attenuated the CCl4-induced NEU3 staining
same,"liver desialylation, PNA lectin staining",[9]; [10],reduced PNA staining
same,"liver fibrosis, picrosirius red staining",[9]; [10],decreased picrosirius red staining
same,"liver inflammation, vessels with accumulation of immune cells (H&E)",[9]; [10],attenuated the CCl4 induced inflammation
same,number of Mac2 positive cells around liver vessels,[9]; [10],decreased the number of Mac2 positive cells in the vessel areas
same,number of Mac2 positive cells in liver,[9]; [10],decreased the number of Mac2 positive cells
same,"steatosis, oil red O staining of liver",[9]; [10],no significant differences in oil red O staining
same,liver hydroxyproline levels,"[9]; CCl4+2AP vs CCl4, male mice",reduced hydroxyproline levels
same,"kidney, spleen, heart, or brown fat weights at day 42","[9]; mouse, in vivo",no significant effect
same,liver NEU3 staining,"[9]; mouse, in vivo",no significant differences in NEU3 staining
same,"liver desialylation, PNA lectin staining","[9]; mouse, in vivo",did not significantly change PNA staining
same,liver hydroxyproline levels,"[9]; mouse, in vivo",no significant differences in hydroxyproline levels
same,liver weight at day 42,"[9]; mouse, in vivo",higher liver weights
same,lung weight at day 42,"[9]; mouse, in vivo",increased lung weights
same,number of Mac2 positive cells around liver vessels,"[9]; mouse, in vivo",no significant differences in the number of Mac2 positive cells in vessel areas
same,number of Mac2 positive cells in liver,"[9]; mouse, in vivo",no significant differences in the number of Mac2 positive cells
same,number of S100A8 positive cells in liver,"[9]; mouse, in vivo",no significant differences in the number of S100A8 positive cells
same,overt effects on mice (body weight over 42 days),"[9]; mouse, in vivo",no overt effects on the mice
same,"steatosis, oil red O staining of liver","[9]; mouse, in vivo",no significant change in the oil red O staining
same,white fat weight at day 42,"[9]; mouse, in vivo",reduced white fat
same,number of CD3 T cells in liver,[9]; [11],no significant treatment-induced difference
same,number of CLEC4F positive Kupffer cells in liver,[9]; [11],no significant treatment-induced difference
same,number of Mac2 positive cells in parenchymal areas of the liver,[9]; treatments vs control mice,no significant treatment-induced difference
same,pulmonary fibrosis,[1],attenuate bleomycin-induced pulmonary fibrosis
